Experimental data as given in US9573887B2, “Naphthalene derivative” (Daito Chemix Corporation, priority 2010, dated 2017).
Counter-ions that a name gives are not always drawn.

What follows are compounds tested against T1, Mouse VCP (Mus musculus, UniProt Q01853) (assay: ATPase activity of purified His-tagged VCP, [γ-32P]ATP, liberated phosphate by liquid scintillation). Conditions: compounds of Comparative Examples; determined in the same manner as the Examples.
T1 construct: histidine tag (N); made in house; host or cells: Sf-9 insect cells (baculovirus vector pVL1392)
T1 sequence (Q01853 whole entry): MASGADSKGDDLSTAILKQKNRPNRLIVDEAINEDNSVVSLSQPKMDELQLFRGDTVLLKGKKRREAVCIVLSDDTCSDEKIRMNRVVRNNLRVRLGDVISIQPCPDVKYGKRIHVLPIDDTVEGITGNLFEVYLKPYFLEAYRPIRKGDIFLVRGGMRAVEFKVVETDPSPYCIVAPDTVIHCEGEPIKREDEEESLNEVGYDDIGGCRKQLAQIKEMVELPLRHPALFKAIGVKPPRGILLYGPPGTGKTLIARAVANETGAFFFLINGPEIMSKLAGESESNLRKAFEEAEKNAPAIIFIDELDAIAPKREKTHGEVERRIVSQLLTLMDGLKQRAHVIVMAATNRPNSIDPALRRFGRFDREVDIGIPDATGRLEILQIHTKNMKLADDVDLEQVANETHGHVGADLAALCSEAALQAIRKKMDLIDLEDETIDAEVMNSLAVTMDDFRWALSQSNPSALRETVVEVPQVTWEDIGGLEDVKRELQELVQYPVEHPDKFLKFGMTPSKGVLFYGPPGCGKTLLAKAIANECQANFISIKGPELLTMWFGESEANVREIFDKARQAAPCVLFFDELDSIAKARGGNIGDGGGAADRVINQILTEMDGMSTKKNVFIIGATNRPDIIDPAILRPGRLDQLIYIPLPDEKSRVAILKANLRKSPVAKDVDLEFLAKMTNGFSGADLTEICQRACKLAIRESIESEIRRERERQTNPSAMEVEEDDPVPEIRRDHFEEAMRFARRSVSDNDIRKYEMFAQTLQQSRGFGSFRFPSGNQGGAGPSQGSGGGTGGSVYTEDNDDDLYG
Format: biochemical
Experimental: In one aspect, the effect of VCP regulators for regulating ATPase activity is determined, for example by the following exemplary assay. Mouse VCP cDNA (the amino acid sequence is completely identical among mouse, rat and human) is added with a DNA sequence corresponding to a histidine tag at the amino-terminal, subcloned into a baculovirus vector pVL1392 (BD Bioscience), and expressed in Sf-9 insect cells. The protein is purified with a nickel column. After the purification the concentration of the protein is adjusted to 0.25-0.5 μg/ml and the protein is stored in a solution containing 50 mM TrisCl pH 8.0, 5 mM EDTA, 10% glycerol, and 15 mM DTT at 4° C. 500 ng of the purified VCP is mixed with 100 μM [γ-^32P]ATP (18.5 GBq/mmol) and the test substance in 20 μL of ATPase buffer (20 mM HEPES (pH7.4), 50 mM KCl, 5 mM MgCl2, 15 mM DTT), and incubated at 37° C. for 10 minutes. The enzyme reaction is stopped with addition of 200 μL of an ice-cold solution containing 7% TCA and 1 mM K2HPO4. 50μ of a solution containing 3.75% ammonium molybdate and 0.02M tungstate silicic/3 N H2SO4 is added, followed by 300 μL of n-butylacetic acid, and then the liberated phosphate is extracted into the organic layer. The reaction tube is centrifuged for 5 minutes at 20,000 g to separate the aqueous layer and the organic layer, 200 μL of the organic layer is taken, and the beta ray radiated from the liberated phosphate is quantified with liquid scintillation counter. By measuring the ATPase activity in the presence of the test substance at various concentrations, ATPase inhibitory activity of the test substance is measured.
Mouse VCP cDNA was added with a DNA sequence corresponding to histidine tag at the amino-terminal, subcloned into a baculovirus vector pVL1392 (BD Bioscience), and expressed in Sf-9 insect cells. The protein was purified with a nickel column (GE Healthcare). The concentration of the protein was adjusted to 0.25-0.5 μg/ml and the protein was stored in a solution containing 50 mM TrisCl pH 8.0, 5 mM EDTA, 10% glycerol, and 15 mM DTT.
The ATPase activity was determined as follows. 500 ng of the purified VCP was mixed with 100 μM [γ-32P]ATP (18.5 GBq/mmol) and the test substance in 20 μL of ATPase buffer (20 mM HEPES (pH7.4), 50 mM KCl, 5 mM MgCl2, 15 mM DTT), and incubated at 37° C. for 10 minutes.
The enzyme reaction was stopped with addition of 200 μL of an ice-cold solution containing 7% TCA and 1 mM K2HPO4. 50μ of a solution containing 3.75% ammonium molybdate and 0.02M tungstate silicic/3 NH2SO4 was added, followed by 300 μL of n-butylacetic acid, and then the liberated phosphate was extracted into the organic layer. The reaction tube was centrifuged for 5 minutes at 20,000 g to separate the aqueous layer and the organic layer, 200 μL of the organic layer was taken, and the beta ray radiated from the liberated phosphate was quantified with liquid scintillation counter.
By measuring the ATPase activity in the presence of the test substance at various concentrations, ATPase inhibitory activity of the test substance was measured. IC50 of the each test substance was calculated by applying the measured values to the equation below using GraphPad Prism (GraphPad Software).

SMILES	IC50 [nM]
Nc1ccc(-c2cccc3c2sc2ccccc23)nc1 [Example 30, sodium salt]	> 100000
Nc1c(/N=N/c2ccc(-c3ccccc3-c3ccccc3)nc2)cc(S(N)(=O)=O)c2ccccc12 [Example 14, sodium salt]	> 10000

Same assay, conditions: compounds of Examples; ATPase inhibitory activity; 500 ng VCP, 100 μM ATP, 37° C., 10 minutes

SMILES	IC50 [nM]
Cc1cccc(-c2ccc(/N=N/c3cc(S(=O)(=O)O)c4ccccc4c3N)cc2)c1 [Example 126, 4-amino-3-(3′-methylbiphenyl-4-ylazo)naphthalene-1-sulfonic acid sodium salt]	343
Nc1c(/N=N/c2ccc(-c3cccc(Cl)c3)nc2)cc(S(=O)(=O)O)c2ccccc12 [Example 23, 4-amino-3-[6-(3-chlorophenyl)pyridine-3-ylazo]naphthalene-1-sulfonic acid sodium salt]	324
Nc1c(/N=N/c2cccc(OCc3ccncc3)c2)cc(S(=O)(=O)O)c2ccccc12 [Example 139, 4-amino-3-[3-(pyridine-4-ylmethoxy)phenylazo]naphthalene-1-sulfonic acid sodium salt]	600
Nc1c(/N=N/c2ccc(C(=O)O)cc2)cc(S(=O)(=O)O)c2ccccc12 [Example 104, 4-(1-amino-4-sulfonaphthalene-2-ylazo)benzoic acid disodium salt]	2070
Nc1c(/N=N/c2ccc(-c3cccc(CN4CCOCC4)c3)nc2)cc(S(=O)(=O)O)c2ccccc12 [Example 11, 4-amino-3-[6-(3-morpholine-4-ylmethylphenyl)pyridine-3-ylazo]naphthalene-1-sulfonic acid sodium salt]	426
Nc1c(/N=N/c2ccc(/C=C/c3ccccc3)nc2)cc(S(=O)(=O)O)c2ccccc12 [Example 30, 4-amino-3-(6-styrylpyridine-3-ylazo)naphthalenesulfonic acid sodium salt]	1140
Nc1c(/N=N/c2cnc(-c3ccccc3)c(-c3ccccc3)c2)cc(S(=O)(=O)O)c2ccccc12 [Example 89, 4-amino-3-(5,6-diphenylpyridine-3-ylazo)naphthalene-1-sulfonic acid sodium salt]	501
Nc1c(/N=N/c2ccc(-c3cccc(-c4ccccc4)c3)nc2)cc(S(=O)(=O)O)c2ccccc12 [Example 42, 4-amino-3-(6-biphenyl-3-ylpyridine-3-ylazo)naphthalene-1-sulfonic acid sodium salt]	769
Nc1c(/N=N/c2cccc(OCc3cccnc3)c2)cc(S(=O)(=O)O)c2ccccc12 [Example 138, 4-amino-3-[3-(pyridine-3-ylmethoxy)phenylazo]naphthalene-1-sulfonic acid sodium salt]	516
Nc1c(/N=N/c2ccc(-c3ccccc3)nc2)cc(S(=O)(=O)O)c2ccccc12 [Example 7, 4-amino-3-(6-phenylpyridine-3-ylazo)naphthalene-1-sulfonic acid sodium salt]	229
Nc1c(/N=N/c2c(Br)cc(-c3cccnc3)cc2Br)cc(S(=O)(=O)O)c2ccccc12 [Example 128, 4-amino-3-(2,6-dibromo-4-pyridine-3-ylphenylazo)naphthalene-1-sulfonic acid sodium salt]	128
Cc1ccc(-c2ccccc2)c(-c2ccc(/N=N/c3cc(S(=O)(=O)O)c4ccccc4c3N)cn2)c1 [Example 71, 4-amino-3-[6-(4-methylbiphenyl-2-yl)pyridine-3-ylazo]naphthalene-1-sulfonic acid sodium salt]	257
Cc1ccc(-c2ccc(/N=N/c3cc(S(=O)(=O)O)c4ccccc4c3N)cc2)cc1 [Example 125, 4-amino-3-(4′-methylbiphenyl-4-ylazo)naphthalene-1-sulfonic acid sodium salt]	417
Nc1c(/N=N/c2ccc(-c3cccc4c3Sc3ccccc3S4)nc2)cc(S(=O)(=O)O)c2ccccc12 [Example 76, 4-amino-3-(6-thianthrene-1-ylpyridine-3-ylazo)naphthalene-1-sulfonic acid sodium salt]	1410
CSc1ccc(/N=N/c2cc(S(=O)(=O)O)c3ccccc3c2N)cc1 [Example 134, 4-amino-3-(4-methylsulfanylphenylazo)naphthalene-1-sulfonic acid sodium salt]	327
Nc1c(/N=N/c2ccccc2OCc2ccncc2)cc(S(=O)(=O)O)c2ccccc12 [Example 141, 4-amino-3-[2-(pyridine-4-ylmethoxy)phenylazo]naphthalene-1-sulfonic acid sodium salt]	747
Nc1c(/N=N/c2ccc(-c3c(OCc4cccnc4)ccc4c3sc3ccccc34)nc2)cc(S(=O)(=O)O)c2ccccc12 [Example 80, 4-amino-3-{6-″3-(pyridine-3-ylmethoxy)dibenzothiophene-4-yl]pyridine-3-ylazo}naphthalene-1-sulfonic acid sodium salt]	329
CC(C)Oc1ccccc1-c1ccc(/N=N/c2cc(S(=O)(=O)O)c3ccccc3c2N)cn1 [Example 27, 4-amino-3-[6-(2-isopropoxyphenyl)pyridine-3-ylazo]naphthalene-1-sulfonic acid sodium salt]	145
COc1ccc(/N=N/c2cc(S(=O)(=O)O)c3ccccc3c2N)cn1 [Example 2, 4-amino-3-(6-methoxypyridine-3-ylazo)naphthalene-1-sulfonic acid sodium salt]	571
Cc1ccccc1-c1ccc(/N=N/c2cc(S(=O)(=O)O)c3ccccc3c2N)cn1 [Example 10, 4-amino-3-(6-o-tolylpyridine-3-ylazo)naphthalene-1-sulfonic acid sodium salt]	149
Nc1c(/N=N/c2ccc(OCc3cccnc3)nc2)cc(S(=O)(=O)O)c2ccccc12 [Example 3, 3-(2-pyridinomethoxy-5-pyridinoazo)-4-amino-1-naphthalenesulfonic acid sodium salt]	281
Nc1c(/N=N/c2ccc(-c3cccc4cccnc34)nc2)cc(S(=O)(=O)O)c2ccccc12 [Example 83, 4-amino-3-(6-quinoline-8-ylpyridine-3-ylazo)naphthalene-1-sulfonic acid sodium salt]	350
Nc1c(/N=N/c2ccc(C(=O)c3ccccc3)cc2)cc(S(=O)(=O)O)c2ccccc12 [Example 131, 4-amino-3-(4-benzoylphenylazo)naphthalene-1-sulfonic acid sodium salt]	242
COc1cc([N+](=O)[O-])ccc1/N=N/c1cc(S(=O)(=O)O)c2ccccc2c1N [Example 121, 4-amino-3-(2-methoxy-4-nitrophenylazo)naphthalene-1-sulfonic acid sodium salt]	2560
CCCOc1ccccc1-c1ccc(/N=N/c2cc(S(=O)(=O)O)c3ccccc3c2N)cn1 [Example 48, 4-amino-3-[6-(2-propoxyphenyl)pyridine-3-ylazo]naphthalene-1-sulfonic acid sodium salt]	127
CCCCc1ccc(-c2ccc(/N=N/c3cc(S(=O)(=O)O)c4ccccc4c3N)cn2)cc1 [Example 62, 4-amino-3-[6-(4-butylphenyl)pyridine-3-ylazo]naphthalene-1-sulfonic acid sodium salt]	856
Nc1c(/N=N/c2ccc(-c3ccccc3-c3ccccc3)nc2)cc(S(=O)(=O)O)c2ccccc12 [Example 12, 4-amino-3-(6-biphenyl-2-ylpyridine-3-ylazo)naphthalene-1-sulfonic acid sodium salt]	116
N#Cc1cccc(-c2ccc(/N=N/c3cc(S(=O)(=O)O)c4ccccc4c3N)cn2)c1 [Example 44, 4-amino-3-[6-(3-cyanophenyl)pyridine-3-ylazo]naphthalene-1-sulfonic acid sodium salt]	584
Nc1c(/N=N/c2c(Br)cc(Br)cc2Br)cc(S(=O)(=O)O)c2ccccc12 [Example 114, 4-amino-3-(2,4,6-tribromophenylazo)naphthalene-1-sulfonic acid sodium salt]	99
